Columns and labels:
[1] = tested on: B6 male mice; test: Renal I/R injury in mice; type: in vivo, mouse; settings: given 30 min prior to I/R injury, 24 h post-ischemia, vs DMSO; not shown
Description: Leukadherins reduce renal I/R injury. To evaluate use of leukadherins in the I/R injury induced changes in the kidney function of WT mice, we performed another experiment. B6 male mice (8-12 weeks of age) were anesthetized and kept on a heating pad to keep them at a constant 37° C. temperature. Next, an abdominal incision was made and the renal pedicles were occluded bilaterally with a nontraumatic vascular clamp for 30 minutes, the clamp then removed and the surgical incision was closed. Sham surgery was performed with an identical procedure but without application of the clamps. Renal I/R injury was assessed at 24 h post-ischemia by measuring the serum creatinine levels. Mouse sera from the tail incision was used for the analyses of sCr (and BUN levels (not shown)) using manual kits (Stanbio Laboratory).

[2] = biological target: T1, integrin CD11b/CD18 (Homo sapiens, UniProt P11215); test: K562 cell adhesion assay, K562 CD11b/CD18 cells on immobilized fibrinogen (Fg); type: cell-based
T1 construct: expressed in transfected cells; host or cells: K562
Description: Cell adhesion assays with immobilized ligands were performed as previously described. Assays with all different K562 cell lines (K562, K562 CD11b/CD18 and K562 E320A) were performed in an identical fashion. Briefly, 384-well Highbind microtiter plates were coated with a 30 μL solution of ligand in Phosphate Buffered Saline, pH 7.4 containing 1 mM each of Ca^2+ and Mg^2+ ions (PBS^++) overnight at 4° C. Ligand Fg was coated at a concentration of […] and iC3b at […]. Heterodimer specific mAb IB4 (ascites) was coated at a 1:100 dilution. Subsequently, the non-specific sites in the wells were blocked by incubation with 1% non-fat milk in Tris Buffered Saline (TBS), pH 7.4, at room temperature for 1 h, except for the neutrophil assay, where the wells were blocked with TBS containing 1% gelatin. Next, the wells were washed three times with TBS. K562 cells were suspended in the assay buffer (TBS containing 1 mM each of Ca^2+ and Mg^2+ ions (TBS^++)) and were transferred to the ligand-coated wells (30,000 cells/well). Stock solution of the leukadherin family of small molecule agonists was prepared by dissolving the compounds in DMSO at a concentration of 2-10 mM. Final concentration of DMSO in the assay was approximately 1%. […] Cells remaining adherent were fixed using formaldehyde and were quantitated using imaging microscopy, as previously described. […]

[3] = tested on: murine neutrophils; test: Neutrophil chemotaxis assay in Zigmond chamber, fMLP gradient; type: cell-based, mouse; settings: vs DMSO
Description: Neutrophil chemotaxis on 2D surfaces was performed using Zigmond chamber (Neuro Probe) as described on acid cleaned glass or Fg coated glass coverslips. Cell migration was allowed in a gradient of […] bacterial peptide formyl-methionyl-leucyl-phenylalanine (fMLP, Sigma), in the absence or presence of leukadherins ([…]). Cell migration was recorded at every 30 sec interval for a period of 25 min using a Nikon Eclipse 90i inverted microscope. Images were acquired with a Nikon DS camera using a PLAN APO 20X differential interference contrast (DIC) microscopy objective and captured into Nikon Imaging software. Analysis of neutrophil migration was performed with the motile population that had moved more than 10 μm using ImageJ software (NIH, USA) with manual cell tracking using the Ibidi chemotaxis and migration tool plugin for ImageJ. Migration velocity and the total displacement (distance from origin) were also analyzed. Quantitation was performed using at least 50 independent cells per condition from at least three independent experiments.
Leukocyte chemotaxis on 2D surfaces involves integrin-mediated sequential adhesion and de-adhesion steps [77]. […] To test if increased cell-adhesion by leukaderins affects cell migration, we used murine neutrophils chemotaxing in response to a gradient of chemokine peptide formyl-Met-Leu-Phe (fMLP). […]

[4] = tested on: WT mouse macrophages and neutrophils; test: Secretion of pro-inflammatory cytokines by stimulated WT mouse macrophages and neutrophils; type: cell-based; settings: cells stimulated with LPS, TNFalpha or ILbeta
Text: We surmised that leukadherins may also suppress pro-inflammatory cytokine express-ion in leukocytes. […] In an experiment to test the effect of leukadherin treatment on secretion of pro-inflammatory cytokines by leukocytes, we stimulated WT mouse macrophages and neutrophils with LPS, TNFalpha or ILbeta in the absence or presence of two different concentrations of agonist LA1 and measured levels of pro-inflammatory cytokine in the cell supernatant. […] Leukadherins decrease secretion of pro-inflammatory factors, including microparticles, by beta2-integrin expressing cells. Additionally, they increase secretion of anti-inflammatory factors, such as IL-10.

Structure (SMILES): O=C(O)c1ccc(-c2ccc(/C=C3\SC(=S)N(Cc4ccccc4)C3=O)o2)cc1 [LA1]
- serum creatinine (sCr) levels [1]: significant reduction
- EC50 ([2]; K562 CD11b/CD18 cells, immobilized Fg, read-out: EC50 (effective concentration for 50% increase in adhesion), CD11b/CD18 dependent cell adhesion to Fg): 4 µM
- relative affinity for CD11b/CD18 compared with IMB-10 ([2]; cell-based adhesion assay): higher affinity
- lateral migration of neutrophils [3]: significant decrease
- migration velocity of neutrophils [3]: significant decrease
- secretion of inflammatory factors (IL-6, TNFa, IL-1b, IFNg, MMP-9, soluble uPAR) in supernatant [4]: significantly decreased

From patent US9023876B2, “Compounds and methods for regulating integrins” (Adhaere Pharmaceuticals, Inc., priority 2010, dated 2015)
